PMC9169098 (Proceedings of the National Academy of Sciences of the …, 2022)
Positions count from the first letter of the chain named. Names and notes keep the numbering of the source.

Columns and labels:
[1] = target: T1, BceAB (ATPase sites of BceA) (Bacillus subtilis, UniProt O34697); assay: colorimetric phosphate-release ATPase assay; type: biochemical; conditions: ATP substrate, 4 mM MgCl2, 37 °C, inhibitor
T1 sequence (O34697 1-253 limits assumed): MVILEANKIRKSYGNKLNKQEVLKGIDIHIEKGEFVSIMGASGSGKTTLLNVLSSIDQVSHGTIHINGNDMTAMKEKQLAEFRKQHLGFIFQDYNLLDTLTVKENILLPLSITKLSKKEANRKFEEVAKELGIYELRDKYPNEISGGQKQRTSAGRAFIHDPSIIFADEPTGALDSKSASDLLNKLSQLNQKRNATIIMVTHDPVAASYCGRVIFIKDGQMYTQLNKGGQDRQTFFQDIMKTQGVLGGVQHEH
T1 sequence (O34741 1-646 partner): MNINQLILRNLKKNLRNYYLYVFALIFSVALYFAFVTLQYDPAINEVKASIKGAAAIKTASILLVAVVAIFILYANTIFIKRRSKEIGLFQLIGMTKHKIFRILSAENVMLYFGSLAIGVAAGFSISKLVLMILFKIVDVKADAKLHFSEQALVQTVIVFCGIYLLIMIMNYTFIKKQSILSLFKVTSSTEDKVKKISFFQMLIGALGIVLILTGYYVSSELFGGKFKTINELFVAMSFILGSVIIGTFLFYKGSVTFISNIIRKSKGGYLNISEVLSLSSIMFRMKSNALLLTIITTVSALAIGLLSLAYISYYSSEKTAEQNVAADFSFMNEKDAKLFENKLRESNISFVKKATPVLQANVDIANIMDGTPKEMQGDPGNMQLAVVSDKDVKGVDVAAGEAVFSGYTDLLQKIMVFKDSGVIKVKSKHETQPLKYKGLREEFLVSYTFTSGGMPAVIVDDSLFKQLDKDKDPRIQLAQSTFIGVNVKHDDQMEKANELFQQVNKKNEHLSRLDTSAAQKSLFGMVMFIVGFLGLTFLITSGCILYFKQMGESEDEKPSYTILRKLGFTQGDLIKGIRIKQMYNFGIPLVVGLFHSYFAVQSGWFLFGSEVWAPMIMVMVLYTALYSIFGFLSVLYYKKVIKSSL

[2] = target: T2, BceB (B. subtilis, UniProt O34741 1-646); assay: cryo-EM structure
T2 sequence (looked up): T1 sequence (O34741 1-646 partner)

[3] = target: the molecule itself; assay: cryo-EM structure

Molecule: [O]=[V]([OH])([OH])[OH] [sodium ortho-vanadate]
- colorimetric phosphate-release ATPase assay [1]: potently inhibited by common ATPase inhibitors such as the substrate analog ATP? S or sodium ortho-vanadate

Molecule: Nc1ncnc2c1ncn2[C@@H]1O[C@H](COP(=O)(O)OP(=O)(O)OP(O)(O)=S)[C@@H](O)[C@H]1O [ATPγS]
- colorimetric phosphate-release ATPase assay ([1]; substrate analog): potently inhibited by common ATPase inhibitors such as the substrate analog ATP? S

B1: BceA (natural protein, B. subtilis, UniProt O34697 1-253, looked up)
chain: T1 sequence (O34697 1-253 limits assumed)
- stoichiometry N [2]: 2 BceA per BceB

B2: BceA E169Q variant (natural protein, B. subtilis, UniProt O34697 1-253, looked up)
chain: T1 sequence (O34697 1-253 limits assumed) with E169Q
- stoichiometry N [3]: 2
